Earlier results on one compound are cited in patent US20250357519A1, “APPLICATIONS OF O2-INSENSITIVE FORMATE DEHYDROGENASE” (UNIVERSITY OF MARYLAND, BALTIMORE, priority 2022, published 2025).

The structures appear in SMILES notation. Read-outs that look alike come from different tables or passages of the source.

In data set [1] the test system is Desulfovibrio vulgaris Hildenborough (DvH) Mo-FDH3, wild-type natively-purified (Mo-FDH3^WT). To be noted: pH 7.6, RT, 2 mM BV, 0.25 nM enzyme; Da Silva et al (2011); cited from earlier work.
Data set [2] deals with Desulfovibrio vulgaris Hildenborough (DvH) FDH2, wild-type natively-purified (FDH2^WT), large subunit DVU2482 SEQ ID NO: 31, small subunit DVU2481 SEQ ID NO: …. The conditions noted are these: cited from earlier work.
Data set [3] deals with T1, Desulfovibrio vulgaris Hildenborough (DvH) W-FDH1, recombinant (W-FDH1^REC), large subunit DVU0587 SEQ ID NO: 29, small subunit DVU0588 SEQ ID NO: 30 (Nitratidesulfovibrio vulgaris, UniProt Q72EJ1).
T1 construct: mature large subunit lacks Tat signal peptide; literature data of Oliveira et al. reanalysed
T1 sequence (Q72EJ1 36-1005): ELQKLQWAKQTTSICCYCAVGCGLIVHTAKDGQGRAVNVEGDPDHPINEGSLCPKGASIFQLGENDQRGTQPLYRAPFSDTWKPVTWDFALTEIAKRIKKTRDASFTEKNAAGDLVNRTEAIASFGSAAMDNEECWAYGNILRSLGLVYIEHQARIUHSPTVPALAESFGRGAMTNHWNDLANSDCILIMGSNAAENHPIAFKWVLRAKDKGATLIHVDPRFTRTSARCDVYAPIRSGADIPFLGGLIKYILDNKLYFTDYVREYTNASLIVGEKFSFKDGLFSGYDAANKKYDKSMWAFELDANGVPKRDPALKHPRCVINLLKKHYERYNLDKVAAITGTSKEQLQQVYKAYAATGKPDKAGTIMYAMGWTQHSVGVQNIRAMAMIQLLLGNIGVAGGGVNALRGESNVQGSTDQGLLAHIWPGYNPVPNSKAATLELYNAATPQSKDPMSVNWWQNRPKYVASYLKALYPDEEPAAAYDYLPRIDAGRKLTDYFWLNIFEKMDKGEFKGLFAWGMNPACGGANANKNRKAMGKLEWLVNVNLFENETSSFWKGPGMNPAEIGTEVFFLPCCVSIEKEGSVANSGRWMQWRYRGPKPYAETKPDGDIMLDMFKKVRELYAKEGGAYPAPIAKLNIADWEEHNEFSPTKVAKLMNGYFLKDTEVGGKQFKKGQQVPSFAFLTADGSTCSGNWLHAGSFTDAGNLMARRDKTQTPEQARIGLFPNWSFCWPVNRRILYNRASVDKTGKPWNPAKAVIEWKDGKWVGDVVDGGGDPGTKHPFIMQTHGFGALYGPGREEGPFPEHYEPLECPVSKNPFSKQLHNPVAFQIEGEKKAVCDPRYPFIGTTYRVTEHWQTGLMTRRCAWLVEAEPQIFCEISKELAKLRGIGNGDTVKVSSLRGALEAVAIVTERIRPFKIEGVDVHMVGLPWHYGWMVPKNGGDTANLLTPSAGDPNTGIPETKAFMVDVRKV
T1 sequence (Q72EJ0 1-236 partner): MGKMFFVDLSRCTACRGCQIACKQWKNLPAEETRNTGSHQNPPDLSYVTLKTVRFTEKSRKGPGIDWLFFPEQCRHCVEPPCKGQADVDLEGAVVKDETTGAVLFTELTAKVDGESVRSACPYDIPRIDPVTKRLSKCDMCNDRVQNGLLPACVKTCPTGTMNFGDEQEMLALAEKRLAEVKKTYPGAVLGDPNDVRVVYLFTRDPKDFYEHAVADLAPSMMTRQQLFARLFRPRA
The conditions noted are these: cited from earlier work.

Data set [4] deals with Desulfovibrio alaskensis (Da) W-FDH1, wild-type natively-purified (W-FDH1^WT). The conditions noted are these: pH 8.0, 37 °C, 7.5 mM BV, 35 nM enzyme; Mota (2011); cited from earlier work.
The mark [5] stands for this setting: BV (2 mM), anaerobic, 1 replicate, da Silva et al (2011), Table 4.
The mark [6] stands for this setting: pH 7.6, RT, 2 mM BV, 0.48 nM enzyme, Da Silva et al (2011).
The mark [7] stands for this setting: pH 7.6, RT, 2 mM BV, 1.4 nM enzyme, Oliveira et al (2020).

The Km is the concentration of substrate that gives half-maximal velocity. For orientation: kcat means the number of substrate molecules converted per active site and unit of time at saturation. As for `O=CO` [formate], the Michaelis-Menten constant (Km) was 8 µM in data set [1]; 4 µM in data set [2] (setting [5]); 4 µM in data set [2] (setting [6]); 16.9 ± 2.8 µM in data set [3] (setting [7]); 17 µM in data set [3] (value reported by Oliveira et al., as cited in text, BV); 10 µM in data set [4]. For the same compound, the kcat was 262 s⁻¹ in data set [1]; 81 s⁻¹ in data set [2] (setting [5]); 81 s⁻¹ in data set [2] (setting [6]); 1144 s⁻¹ in data set [3] (pH 7.6, RT, 2 mM BV, 1.4 nM enzyme, Alvarez-Malmagro et al (2021)); 1100 s⁻¹ in data set [3] (pH 7.6, RT, 2 mM BV, 1.4 nM enzyme, Miller et al (2018)); 1310 ± 50 s⁻¹ in data set [3] (setting [7]). In addition, the kcat in data set [3] (pH 7.6, RT, 2 mM BV, 1.4 nM enzyme, Szczesny et al (2019)) was 940 s⁻¹; in data set [4], 241 s⁻¹.
